# Literature values in patent publication US20070197544A1, “ILOPROST IN COMBINATION THERAPIES FOR THE TREATMENT OF PULMONARY ARTERIAL HYPERTENSION” (CoTherix, Inc., priority 2003, published 2007).
# Structures can show the parent of a compound that is named as a salt. Where two headings read alike, the source gives them in different places.
# Experiments:
# [1] = oral, at 3 and 6 months
# [2] = at least one year of treatment
# [3] = 20 mg, 12-week period
# [4] = versus placebo, severe PAH
# [5] = long-term use of aerosolized iloprost, severe pulmonary hypertension
# [6] = not given; remark: listed apart in the source
# [7] = administered by aerosolization, patients with pulmonary hypertension
# [8] = continuous infusion, severe pulmonary hypertension
# [9] = open pilot study
smiles,measurement,setting,value
CC#CCC(C)[C@H](O)/C=C/[C@@H]1[C@H]2c3cccc(CCCC(=O)O)c3O[C@H]2C[C@H]1O (mixture of isomers) [Beraprost],benefit in PAH,[1],shown a benefit
"CN1CC(=O)N2[C@H](c3ccc4c(c3)OCO4)c3[nH]c4ccccc4c3C[C@@H]2C1=O [Cialis, Tadalafil]",most commonly reported treatment-emergent adverse effects,[2]; 10 mg or 20 mg,headache and upset stomach
same,discontinuation rate for any individual adverse event,[2],less than 1%
same,patients who discontinued the study due to side effects,[2],Five
same,most commonly reported (greater than or equal to 5 percent) treatment-emergent adverse effects,[3],"headache, back pain, and upset stomach"
same,patients who discontinued the study because of adverse events,[3],5%
CC#CCC(C)[C@H](O)/C=C/[C@@H]1[C@H]2C/C(=C/CCCC(=O)O)C[C@H]2C[C@H]1O (stereo partly shown) [Iloprost],exercise capacity,[4],improved exercise capacity
same,clinical improvement,[5],substantial clinical improvement
"CCCc1nc(C)c2c(=O)[nH]c(-c3cc(S(=O)(=O)N4CCN(CC)CC4)ccc3OCC)nn12 [Levitra, vardenafil HCl]",most commonly reported side effects,in vivo,"headache, flushing, and stuffy or runny nose"
same,erectile function,phase III clinical studies,Helped men get and keep an erection sufficient for satisfactory sexual performance
COc1ccccc1Oc1c(NS(=O)(=O)c2ccc(C(C)(C)C)cc2)nc(-c2ncccn2)nc1OCCO [bosentan],liver toxicity,[6]; higher dose,liver toxicity occurred
same,six minute walk test,"[6]; whole group, improvement greater at higher doses",improved
CCCCC[C@H](O)/C=C/[C@@H]1[C@H]2C/C(=C/CCCC(=O)O)O[C@H]2C[C@H]1O [prostacyclin],duration of effects (pulmonary vasodilatation),[7],15 min
same,mortality,[8],reduce mortality
Cc1cc2c(cc1CC(=O)c1sccc1S(=O)(=O)Nc1onc(C)c1Cl)OCO2 [sitaxsentan],decrease in pulmonary vascular resistance,[9],30%
same,six minute walk test,[9],improvement
